Where two headings read alike, the source gives them in different places. Non-standard residues stand in square brackets, D forms with d. Residues, ends and D or L forms follow the SMILES beside them. Groups on a side chain read outwards from the residue. ξ: configuration not given here. *: point of attachment. X3 = C[N+](C)(Cc1cn([C@@H](CCCNC(=N)N)C(=O)*)nn1)C[B-](F)(F)F; X2 = C[N+](C)(Cc1cn([C@@H](CCCCN)C(=O)*)nn1)C[B-](F)(F)F; DOTA = O=C(O)CN1CCN(CC(=O)O)CCN(CC(=O)*)CCN(CC(=O)O)CC1; X5 = CC(C)[C@H](C(=O)*)n1cc(C[N+](C)(C)C[B-](F)(F)F)nn1; X4 = C[N+](C)(Cc1cn(-c2ccc(C(=O)*)cc2)nn1)C[B-](F)(F)F; dTyr(3-I) = N[C@H](Cc1ccc(O)c(I)c1)C(=O)O; 2Nal = N[C@@H](Cc1ccc2ccccc2c1)C(=O)O; X1 = OCC1O[C@H](*)C(O)C(O)[C@H]1O; pS = N[C@@H](COP(=O)(O)O)C(=O)O; dNMeOrn = CN[C@H](CCCN)C(=O)O; 4Amb = NCc1ccc(C(=O)O)cc1; Mercaptoacetyl = O=C(CS)*; ξNMeOrn = CNC(CCCN)C(=O)O; 4Abz = Nc1ccc(C(=O)O)cc1; X6 = CC(=O)c1ccc(N*)cc1; Dap = NC[C@H](N)C(=O)O

The record followed here is patent publication US11639373B2, “Therapeutic and diagnostic agents for cancer” (TECHNISCHE UNIVERSITÄT MÜNCHEN, priority 2018, dated 2023).

The target in data set [1] is T1, human CXCR4 (Homo sapiens, UniProt P61073).
T1 construct: using CXCR4 positive Jurkat human T-cell leukemia cells; endogenous in cells; host or cells: Jurkat human T-cell leukemia cells
T1 sequence (P61073 whole entry): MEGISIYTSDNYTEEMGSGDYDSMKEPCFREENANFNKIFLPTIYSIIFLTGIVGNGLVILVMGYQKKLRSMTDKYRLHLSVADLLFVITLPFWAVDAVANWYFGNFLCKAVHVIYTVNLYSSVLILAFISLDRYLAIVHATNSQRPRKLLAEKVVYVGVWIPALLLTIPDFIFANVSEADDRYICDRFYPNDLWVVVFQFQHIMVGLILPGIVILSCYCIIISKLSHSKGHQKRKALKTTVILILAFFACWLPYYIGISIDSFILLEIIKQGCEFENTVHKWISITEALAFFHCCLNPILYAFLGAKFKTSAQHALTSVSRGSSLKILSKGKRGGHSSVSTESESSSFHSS
The data set is described as follows: Competitive binding assay to human CXCR4, Jurkat cells, [125I]FC131 radioligand.

Data set [2] in a line: Lipophilicity, shake flask n-octanol/PBS. Format: physicochemical. To be noted: Table 1d. The procedure:
To a solution of app. 0.5 MBq of radiolabeled peptide in 500 μL of PBS (pH 7.4), 500 μL of octanol were added (n=6). Vials were vortexed vigorously for 3 min. To achieve quantitative phase separation, the vials were centrifuged at 14,600×g for 6 min in a Biofuge 15 (Heraeus Sepatech, Osterode, Germany). The activity concentrations in 100 μL-samples of both the aqueous and the organic phase were measured in a γ-counter. Both the partition coefficient Pow, which is defined as the molar concentration ratio of a single species A between octanol and an aqueous phase at equilibrium, and log Pow, which is an important parameter used to characterize lipophilicity of a compound, were calculated.
Internalization and cell efflux studies of the respective ligands were performed using a previously published protocol (Poschenrieder et al., First 18F-Labeled Pentixafor-Based Imaging Agent for PET Imaging of CXCR4 Expression In Vivo. 2016). The distribution coefficients of the respective ^68Ga- and […] peptides in octanol and PBS buffer were determined applying the shake flask method as described previously (Weineisen et al., Synthesis and preclinical evaluation of DOTAGA-conjugated PSMA ligands for functional imaging and endoradiotherapy of prostate cancer. EJNMMI Research. 2014; 1:1-15).
Lipophilicity was measured using the shake flask method. The logarithm of the partition coefficient P, where P is the ratio of activity distribution of the respective ^68Ga/^177Lu-labeled peptide in n-octanol and PBS are listed in Table 2.

Data set [3] deals with T2, murine CXCR4 (Mus musculus, UniProt P70658).
T2 construct: The murine CXCR4 expressing cell line Ep-Myc1080; endogenous in cells; host or cells: Eμ-Myc1080 mouse B-cell lymphoma cells
T2 sequence (P70658 whole entry): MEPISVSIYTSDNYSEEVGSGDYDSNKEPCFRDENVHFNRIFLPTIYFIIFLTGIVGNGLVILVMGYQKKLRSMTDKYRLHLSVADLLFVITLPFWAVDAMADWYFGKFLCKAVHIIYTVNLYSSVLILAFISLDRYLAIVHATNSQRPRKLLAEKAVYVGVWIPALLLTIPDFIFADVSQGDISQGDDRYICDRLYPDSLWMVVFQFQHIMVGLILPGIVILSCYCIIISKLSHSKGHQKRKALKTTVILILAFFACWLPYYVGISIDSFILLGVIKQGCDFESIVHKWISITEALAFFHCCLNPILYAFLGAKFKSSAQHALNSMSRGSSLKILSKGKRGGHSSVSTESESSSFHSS
As to the kind of experiment: Competitive binding assay to murine CXCR4, Eμ-Myc1080 cells, [125I]CPCR4.3 radioligand. The procedure:
Competition studies addressing the human CXCR4 were performed using CXCR4 positive Jurkat human T-cell leukemia cells and ^125I-FC131 (^125I-2), addressing the murine CXCR4, Ep-Myc1080 mouse B-cell lymphoma cells and ^125I-CPCR4.3 (Demmer et al. A Conformationally Frozen Peptoid Boosts CXCR4 Affinity and Anti-HIV Activity. Angewandte Chemie International Edition. 2012; 51:8110-8113) as the radioligand were utilized as described previously (Poschenrieder et al., The influence of different metal-chelate conjugates of pentixafor on the CXCR4 affinity. EJNMMI research. 2016; 6:1-8).

[4] abbreviates: Table 1d, orn side chain modifications, read-out: IC50 [nM] to hCXCR4.
Setting [5] is: Table 1b, 18F-labeling precursors, Jurkat cells, [^125I]FC-131, read-out: IC50 [nM] to hCXCR4.
Setting [6] is: Table 1b, ^natLu metal complexes, Jurkat cells, [^125I]FC-131, read-out: IC50 [nM] to hCXCR4 [^natLu].
The mark [7] stands for this setting: ^natLu complexes, Jurkat cells, [^125I]FC131 0.1 nM, RT 2 h, mean ± SD (n = 3), read-out: IC50 [nM] for ^natLu-complexes and human CXCR4.
Where [8] appears, read: Table 1b, ^natGa metal complexes, Jurkat cells, [^125I]FC-131, read-out: IC50 [nM] to hCXCR4 [^natGa].
Setting [9] is: Table 1b, ^natY metal complexes, Jurkat cells, [^125I]FC-131, read-out: IC50 [nM] to hCXCR4 [^natY].
Where [10] appears, read: ^natGa complexes, Jurkat cells, [^125I]FC131 0.1 nM, RT 2 h, mean ± SD (n = 3), read-out: IC50 [nM] for ^natGa-complexes and human CXCR4.

Usually IC50 stands for the midpoint of a concentration-inhibition curve. Consider `CC(=O)c1ccc(NC(=O)[C@@H](C)NC(=O)[C@@H](CCCNC(=N)N)NC(=O)[C@@H](CNC(=O)CO/N=C\c2ccc(F)cc2)NC(=O)CCS[C@H]2OC(CO)[C@@H](O[C@@H]3OC(CO)[C@@H](O)C(O)C3O)C(O)C2O)cc1` (some centres unmarked) [F5], for which the IC50 in data set [1] (setting [4]) came to 4.6 ± 0.7 nM.

Usually logP stands for the decadic logarithm of the partition coefficient of the neutral form, usually between octanol and water. Take `C[C@@H](NC(=O)[C@@H](CCCNC(=N)N)NC(=O)[C@H](CO)NC(=O)[C@H](COP(=O)(O)O)NC(=O)[C@H](CO[C@H]1OC(CO)[C@H](O)C(O)C1O)NC(=O)CS)C(=O)Nc1ccc(C(=O)O)cc1` (some centres unmarked) [T4] (Mercaptoacetyl-S(X1)[pS]S[dR][dA][4Abz]-OH): the IC50 in data set [1] (setting [4]) came to 213 ± 22 nM. For the same molecule, the logP in data set [2] is reported as −2.2.

As for `CN1C(=O)[C@@H](Cc2ccc(O)cc2)NC(=O)CNC(=O)[C@H](Cc2ccc3ccccc3c2)NC(=O)[C@H](CCCNC(=N)N)NC(=O)[C@H]1CCCNC(=O)c1ccc(NC(=O)CNC(=O)[C@H](CCCNC(=N)N)n2cc(C[N+](C)(C)C[B-](F)(F)F)nn2)cc1` [F3b, cyclo[-yorn′(AMBF3(methyl(1H-1,2,3-triazol-4-yl)-rG-4-amino)benzoyl-)RNaIG]] (cyclo([2Nal]G[dY][dNMeOrn]([4Abz-Gly-X3])R)), the IC50 in data set [1] (setting [5]) was determined as 2.4 ± 0.8 nM.

In the case of `C[C@@H](NC(=O)[C@@H](CCCNC(=N)N)NC(=O)[C@H](CC(=O)O)NC(=O)[C@H](CC(=O)O)NC(=O)[C@H](CC(=O)O)NC(=O)CS)C(=O)Nc1ccc(C(=O)O)cc1` [T2] (Mercaptoacetyl-DDD[dR][dA][4Abz]-OH), the IC50 in data set [1] (setting [4]) amounted to 85.7 ± 5.1 nM. Besides, in data set [2], the logP is given as −2.2.

Turning to `CN1C(=O)[C@H](Cc2ccc(O)c(I)c2)NC(=O)CNC(=O)[C@@H](Cc2ccc3ccccc3c2)NC(=O)[C@@H](CCCNC(=N)N)NC(=O)[C@@H]1CCCNC(=O)c1ccc(NC(=O)[C@@H](CC(=O)O)NC(=O)CN2CCN(CC(=O)O)CCN(CC(=O)O)CCN(CC(=O)O)CC2)cc1` [P1], the IC50 in data set [1] (setting [6]) and in data set [1] (setting [7]) was 106 ± 10 nM each time.

`CC(=O)c1ccc(NC(=O)[C@@H](C)NC(=O)[C@@H](CCCNC(=N)N)NC(=O)[C@@H](CO)NC(=O)[C@@H](CO)NC(=O)[C@@H](CO)NC(=O)CS)cc1` [T1] (Mercaptoacetyl-[dS][dS][dS][dR][dA]-X6): in data set [1] (setting [4]), the IC50 came out at 22.9 ± 3.9 nM.

In the case of `CN1C(=O)[C@@H](Cc2ccc(O)c(I)c2)NC(=O)CNC(=O)[C@H](Cc2ccc3ccccc3c2)NC(=O)[C@H](CCCNC(=N)N)NC(=O)[C@H]1CCCNC(=O)c1ccc(-n2cc(C[N+](C)(C)C[B-](F)(F)F)nn2)cc1` [F1, cyclo[i-yorn′(AMBF3(methyl(1H-1,2,3-triazol-4-yl)4-amino)benzoyl-)RNaIG]] (cyclo([2Nal]G[dTyr(3-I)][dNMeOrn](X4)R)), the IC50 in data set [1] (setting [5]) is 134 ± 47 nM.

On to “cyclo[i-yorn′([^natLu]DOTA-rG-(4-amino)benzoyl-)RNaIG [^natLu-P4]”, for which, in data set [3] (^natLu complexes, Eμ-Myc1080 mouse B-cell lymphoma cells, [^125I]CPCR4.3, mean ± SD (n = 3)), the “mIC50[nM] ^natLu complexes and murine CXCR4” value stood at 37.1 ± 2.9 nM.

As to “cyclo[i-yorn′(DOTA-ra-(4-amino)benzoyl-)RNaIG [P5]”, the “increase in affinity compared to P2” value in data set [1] (hCXCR4) is “almost two-fold”.

`CN1C(=O)[C@@H](Cc2ccc(O)c(I)c2)NC(=O)CNC(=O)[C@H](Cc2ccc3ccccc3c2)NC(=O)[C@H](CCCNC(=N)N)NC(=O)[C@H]1CCCNC(=O)c1ccc(NC(=O)CNC(=O)[C@H](CN)NC(=O)CN2CCN(CC(=O)O)CCN(CC(=O)O)CCN(CC(=O)O)CC2)cc1` [P2] (cyclo([2Nal]G[dTyr(3-I)][dNMeOrn]([4Abz-Gly-Dap-DOTA])R)): the figures for the IC50 in data set [1] (setting [8]), in data set [1] (setting [9]) and in data set [1] (setting [10]) were 3.6 ± 0.7 nM, 4.1 ± 1.3 nM and 3.6 ± 0.7 nM, respectively.

“cyclo[i-yorn′([^natLu]DOTA-dapG-(4-amino)benzoyl-)RNaIG [^natLu-P2]”: in data set [1] (hCXCR4, versus ligand with glycine linker only), the “improvement of binding affinity by insertion of cationic amino acids in the linker” value is given as “almost two-fold”.

Consider `CN1C(=O)[C@@H](Cc2ccc(O)cc2)NC(=O)CNC(=O)[C@H](Cc2ccc3ccccc3c2)NC(=O)[C@H](CCCNC(=N)N)NC(=O)[C@H]1CCCNC(=O)c1ccc(CNC(=O)CN2CCN(CC(=O)O)CCN(CC(=O)O)CCN(CC(=O)O)CC2)cc1` [compound 3, cyclo(D-Tyr^1-D-[NMe]Orn^2(AMBS-DOTA)-Arg^3-Nal^4-Gly^5), reference compound] (cyclo([dY][dNMeOrn]([4Amb-DOTA])R[2Nal]G)), for which the IC50 in data set [3] is > 1000 nM.

On to `CN1C(=O)[C@@H](Cc2ccc(O)c(I)c2)NC(=O)CNC(=O)[C@H](Cc2ccc3ccccc3c2)NC(=O)[C@H](CCCNC(=N)N)NC(=O)[C@H]1CCCNC(=O)c1ccc(NC(=O)CNC(=O)[C@H](CCCCN)n2cc(C[N+](C)(C)C[B-](F)(F)F)nn2)cc1` [F4, cyclo[i-yorn′(AMBF3(methyl(1H-1,2,3-triazol-4-yl)-kG-4-amino)benzoyl-)RNaIG]] (cyclo([2Nal]G[dTyr(3-I)][dNMeOrn]([4Abz-Gly-X2])R)), for which the IC50 in data set [1] (setting [5]) came out at 3.8 ± 0.9 nM.

`C[C@@H](NC(=O)[C@@H](CCCNC(=N)N)NC(=O)[C@H](CN)NC(=O)[C@H](CN)NC(=O)[C@H](CN)NC(=O)CS)C(=O)Nc1ccc(C(=O)O)cc1` [T3] (Mercaptoacetyl-[Dap][Dap][Dap][dR][dA][4Abz]-OH): the half-maximal inhibitory concentration (IC50) in data set [1] (setting [4]) is 18.8 ± 8.5 nM. Further, in data set [2], the logP is given as −1.5.

For the molecule `CN1C(=O)[C@@H](Cc2ccc(O)c(I)c2)NC(=O)CNC(=O)[C@H](Cc2ccc3ccccc3c2)NC(=O)[C@H](CCCNC(=N)N)NC(=O)C1CCCNC(=O)c1ccc(NC(=O)CNC(=O)[C@H](CCCCN)NC(=O)CN2CCN(CC(=O)O)CCN(CC(=O)O)CCN(CC(=O)O)CC2)cc1` (stereo partly drawn) [P3] (cyclo([2Nal]G[dTyr(3-I)][ξNMeOrn]([4Abz-Gly-Lys-DOTA])R)), the IC50 was determined as 38 ± 25 nM in data set [1] (Table 1b, ^natBi metal complexes, Jurkat cells, [^125I]FC-131, read-out: IC50 [nM] to hCXCR4 [^natBi]); 2.4 ± 0.1 nM in data set [1] (setting [8]); 3.6 ± 1.1 nM in data set [1] (setting [6]); 2.4 ± 0.2 nM in data set [1] (setting [9]); 2.4 ± 0.1 nM in data set [1] (setting [10]); 3.6 ± 1.1 nM in data set [1] (setting [7]).

On to `CN1C(=O)[C@@H](Cc2ccc(O)cc2)NC(=O)CNC(=O)[C@H](Cc2ccc3ccccc3c2)NC(=O)[C@H](CCCNC(=N)N)NC(=O)C1CCCNC(=O)c1ccc(NC(=O)CNC(=O)[C@H](CCCCN)NC(=O)CN2CCN(CC(=O)O)CCN(CC(=O)O)CCN(CC(=O)O)CC2)cc1` (stereo partly drawn) [P3b] (cyclo([2Nal]G[dY][ξNMeOrn]([4Abz-Gly-Lys-DOTA])R)), for which the IC50 in data set [1] (setting [8]) is 8.9 ± 3.8 nM; in data set [1] (setting [6]), 8 ± 3.1 nM; in data set [1] (setting [9]), 6.3 ± 2.5 nM; in data set [1] (setting [10]), 8.9 ± 3.8 nM; in data set [1] (setting [7]), 8 ± 3.1 nM.

Consider `CC(C)[C@H](C(=O)NCC(=O)Nc1ccc(C(=O)NCCC[C@@H]2C(=O)N[C@@H](CCCNC(=N)N)C(=O)N[C@@H](Cc3ccc4ccccc4c3)C(=O)NCC(=O)N[C@H](Cc3ccc(O)c(I)c3)C(=O)N2C)cc1)n1cc(C[N+](C)(C)C[B-](F)(F)F)nn1` [F2, cyclo[i-yorn′(AMBF3(methyl(1H-1,2,3-triazol-4-yl)-vG-4-amino)benzoyl-)RNaIG]] (cyclo([2Nal]G[dTyr(3-I)][dNMeOrn]([4Abz-Gly-X5])R)), for which the IC50 in data set [1] (setting [5]) is 65.2 ± 10 nM.
